Measurements as given in article PMC10610379, “Epidrugs as Promising Tools to Eliminate Plasmodium falciparum Artemisinin-Resistant and Quiescent Parasites” (Pharmaceutics, 2023).
Values joined by “and” are separate entries in the source; they are usually repeats but may differ in a detail not shown here. Equal entries are not always repeated.

What was measured:
[1] = tested on: Plasmodium falciparum F32-ART (artemisinin-resistant strain); test: Standard chemosensitivity assay (SYBR Green I), F32-ART; type: cell-based; conditions: for IC50: Plasmodium falciparum, F32-ART, 48 h incubation, SYBR Green I, mean ± SEM of 3 experiments (* mean of 2), read-out: Antiplasmodial Activity: IC50, F32-ART; for Selectivity Index CC50/IC50: ratio cytotoxicity (mammalian cell type of the CC50)/antiplasmodial activity on F32-ART
Procedure: (§1) They differ by eight mutations in seven genes (PF3D7_0110400, PF3D7_1343700, PF3D7_0213400, PF3D7_1115700, PF3D7_1302100, PF3D7_1459600, PF3D7_1464500) among them the M476I mutation on the kelch13 gene. F32-ART and F32-TEM strains have RSA^0–3 h values up to 12% and less than 0.1%, respectively. […] Both strains were cultured, in the same conditions, according to the Trager and Jensen protocol with modifications. Briefly, parasites were cultivated in RPMI-1640 medium (Biowest) at 2% hematocrit in human red blood cells and 5% human serum (EFS, French Blood Bank) under 5% CO2 in a humid atmosphere at 37 °C.
(§2) The antimalarial activities of the compounds were evaluated on both strains. […] Antimalarial activities were determined with the SYBR Green I method. Each drug concentration was tested in triplicate. The parasites were incubated with the drugs for 48 h. Plates were read on a BioTek FLX800 Microplate Fluorescence Reader (Bio-Tek instruments, Winooski, VT, USA) (λexcitation = 485 nm, λemission = 528 nm). Control parasite culture (i.e., RPMI with 0.5% DMSO) was referred to as 100% growth. IC50 and IC90 values were determined using GraphPad Prism version 7.05 (GraphPad Software, San Diego, CA, USA). Results were the mean of 3 independent experiments. When it is relevant, statistical significance between results obtained with both parasite strains was determined by a Mann–Whitney test using GraphPad Prism version 7.05.

[2] = tested on: Plasmodium falciparum F32-TEM (artemisinin-sensitive twin line); test: Standard chemosensitivity assay (SYBR Green I), F32-TEM; type: cell-based; conditions: Plasmodium falciparum; F32-TEM, 48 h incubation, SYBR Green I; mean ± SEM of 3 experiments (* mean of 2); read-out: Antiplasmodial Activity: IC50, F32-TEM
Procedure: as §1, §2

GM15850 = tested on: GM15850; parameters: method as in PMID 18953021; conditions: data from literature ref 46, read-out: Cytotoxicity: CC50 (GM15850); cited from earlier work
NIH3T3 = tested on: NIH3T3; parameters: method as in PMID 28644986; conditions: data from literature ref 50, read-out: Cytotoxicity: CC50 (NIH3T3); cited from earlier work
HeLa = conditions: cited from earlier work
[3] = tested on: ART-resistant parasites F32-ART at the quiescent stage; test: Quiescent-stage Survival Assay (QSA), 48-h exposure; type: cell-based, Plasmodium falciparum
Procedure: The sensitivity of the ART-resistant parasites F32-ART at the quiescent stage towards the different molecules was determined using the QSA (Quiescent-stage Survival Assay), as previously described.
Epidrugs were tested at their IC90 values. In the present study, quiescence was induced using 3 µM of ART or 700 nM of DHA [28]. Thus, D-sorbitol synchronized ring-stage parasites at 3% parasitemia and 2% hematocrit (5 mL of culture per well in 6-well plates) were first exposed to 6 h of ART or DHA to induce quiescence and then to 48 h of the combination “ART or DHA + compound to be tested”. The combinations “ART 6 h/ART 48 h” or “DHA 6 h/DHA 48 h” were used as controls. The compounds were evaluated, in parallel, on proliferating parasites, i.e., without any pre-treatment. After drug exposure, parasite cultures were washed with 40 mL of RPMI-1640 medium and cultured in drug-free conditions supplemented with 10% human serum in new wells. The parasitemia for each condition was then microscopically monitored every 2 days. Culture media were renewed twice a week and 25 µL of fresh red blood cells were added once a week. Obtained data were used to perform Kaplan–Meier survival analyses considering censored data. The outcome was defined as the day when parasite cultures reached the initial parasitemia (3%) and data were considered as censored if no parasite recrudescence was observed during the 30-day experiment timeframe. When relevant, statistical significance between results obtained for the conditions “ART/ART” and “ART/ART + compound to be tested” or “DHA/DHA” and “DHA/DHA + compound to be tested” was determined by a Log Rank (Mantel Cox) test using GraphPad Prism version 7.05. For the best compounds targeting histones, in order to compare western blots data, modified QSAs were carried out by comparing “DHA 6 h/DHA 24 h” versus “DHA 6 h/DHA + compound to be tested 24 h”.

[4] = tested on: ART-resistant parasites F32-ART at the quiescent stage; test: Modified QSA, 24-h exposure; type: cell-based, Plasmodium falciparum; conditions: DHA 700 nM, compound at its IC90, 24-h exposure
Procedure: Epidrugs were tested at their IC90 values. In the present study, quiescence was induced using 3 µM of ART or 700 nM of DHA [28]. Thus, D-sorbitol synchronized ring-stage parasites at 3% parasitemia and 2% hematocrit (5 mL of culture per well in 6-well plates) were first exposed to 6 h of ART or DHA to induce quiescence and then to 48 h of the combination “ART or DHA + compound to be tested”. The combinations “ART 6 h/ART 48 h” or “DHA 6 h/DHA 48 h” were used as controls. The compounds were evaluated, in parallel, on proliferating parasites, i.e., without any pre-treatment. […] The parasitemia for each condition was then microscopically monitored every 2 days. […] When relevant, statistical significance between results obtained for the conditions “ART/ART” and “ART/ART + compound to be tested” or “DHA/DHA” and “DHA/DHA + compound to be tested” was determined by a Log Rank (Mantel Cox) test using GraphPad Prism version 7.05. […]
To collect enough material for immunoblotting, we performed the analysis after a 24-h exposure of DHA-treated parasites to the epidrug and in parallel evaluated the activity of the three epidrugs in a modified QSA, in which quiescent parasites were exposed to the drug to be tested for 24 instead of 48 h, as in our previous experiments (Figure 2).

H4K8ac = test: Immunoblotting, histone mark abundance in F32-ART parasites; type: cell-based, Plasmodium falciparum; conditions: 90nM
Procedure: (§3) Abundance of methylated and acetylated histone was determined in parasite cultures in different conditions: “not-treated”, “DHA 24 h”, “DHA 6 h/DHA 24 h” and “DHA 6 h/DHA + compound to be tested 24 h”. At the end of the treatments, parasite cultures were washed in RPMI-1640 and then twice in PBS 1× before red blood cell lysis with 0.075% saponin (Sigma-Aldrich) in PBS. Parasite ghosts were washed 3 times in PBS before incubating the ghosts with E1A lysis buffer (50 mM Hepes pH 7.5; 250 mM NaCl; 5 mM EDTA; 0.1% Triton X-100, 1 mM DTT, 0.2 mM PMSF supplemented with complete Mini EDTA-free protease inhibitor cocktail (Roche®, Basel, Switzerland)) for 15 min. Ghosts were then sonicated for 3 × 15s ON/OFF cycles to shear parasite membranes. Debris were pelleted by centrifuging for 15 min at 13,800× g and 4 °C, and supernatants (containing parasitic proteins) were then collected. Protein concentrations were determined using BCA assay (Bio-Rad, Hercules, CA, USA) according to the manufacturer’s instructions. For each sample, 10 µg of proteins were mixed with 4× sample buffer (10 mL 50% Glycerol, 5 mL 0.5 M Tris HCl pH 6.8, 4 mL 20% SDS, 0.02% Bromophenol blue for a total solution volume of 20 mL) and 100 mM DTT and then separated on 15% SDS-PAGE gels in Laemmli running buffer. Gels were then wet-transferred O/N at 20 V onto PVDF membranes. Membranes were blocked in TBST for 1 h at room temperature. Bottom parts were then probed with histone antibodies while upper parts were probed with PFALDOLASE antibody (Abcam, ab38905, Cambridge, UK) at 1:20,000 dilution. The following primary antibodies were used: anti-H3K4me1 (Abcam, ab8895); anti-H3K4me2 (Abcam, ab35356); anti-H3K9me2 (Abcam, ab1220); anti-H3K9me3 (Millipore, 07-442, Burlington, MA, USA); anti-tetra-acetyl H4 (Millipore, 06-866); anti-H4K8Ac (Millipore, 07-328); anti-H4K20me3 (Abcam, ab9053); anti-H3K4me3 (Diagenode) and anti-H3K9Ac (Millipore, 07-352) at 1:10,000. The following secondary antibodies were used: anti-rabbit IgG-Peroxidase produced in goat (Sigma-Aldrich) or anti-mouse IgG-Peroxidase (Sigma-Aldrich); at 1:20,000 dilutions. Blots were developed using ECL Prime Western Blotting (GE Healthcare, Chicago, IL, USA) and read on a Chemidoc touch imaging software. Densitometry analysis was performed by using ImageLab software from Bio-Rad. To determine if variations in histone abundances were statistically significant, immunoblotting experiments were performed on 3 biological replicates and each run was performed twice.

H4ac4 = test: as above; type: cell-based, Plasmodium falciparum; conditions: 90nM
Procedure: as §3

Jurkat = conditions: read-out: Cytotoxicity: CC50 (Jurkat), data from literature ref 41; cited from earlier work
HL-60 = conditions: read-out: Cytotoxicity: CC50 (HL-60), data from literature ref 49; cited from earlier work
[5] = 24 h, F32-ART ring stage proliferating, 3 replicates (Fig 3A)
[6] = DHA 6 h/DHA + apicidin 24 h, F32-ART DHA-treated parasites, 3 replicates (Fig 3E)

Row | SMILES | IC50 [1] [µM] | Selectivity Index CC50/IC50 [1] | IC50 [2] [µM] | CC50 (GM15850) [µM] | CC50 (NIH3T3) [µM] | CC50 (HeLa) [µM] | Delay in parasite recrudescence time (difference between median recrudescence times), ART/ART + compound vs ART/ART ([3]; quiescence induced with ART 3 µM 6 h, then 48 h ART + compound at its IC90) [days] | Delay in recrudescence time, DHA/DHA + compound vs DHA/DHA ([3]; quiescence induced with DHA 700 nM 6 h, then 48 h DHA + compound at its IC90) | Recrudescence in modified QSA, DHA 6 h/DHA + compound 24 h vs DHA 6 h/DHA 24 h [4] | Fold change of H4K8ac abundance, apicidin vs DMSO (H4K8ac; [5]) | Fold change of H4K8ac abundance, apicidin, quiescent stage (H4K8ac; [6]) | Fold change of H4ac4 abundance, apicidin vs DMSO (H4ac4; [5]) | Fold change of H4ac4 abundance, apicidin, quiescent stage (H4ac4; [6]) | CC50 (Jurkat) [µM] | CC50 (HL-60) [µM]
1 | Cc1ccc(NC(=O)CCCCCC(=O)Cc2ccccc2N)cc1 [TC-H 106] | > 10 | <0.6 | > 10 | 6.3 | – | – | – | – | – | – | – | – | – | – | –
2 | C#CCN(Cc1ccc2nc(N)[nH]c(=O)c2c1)c1ccc(C(=O)N[C@@H](CCC(=O)O)C(=O)O)cc1 [CB3717] | 1 | >20 | 1 | – | > 20 | – | – | – | – | – | – | – | – | – | –
3 | NNc1nncc2ccccc12 [Hydralazine] | > 10 | <4 | > 10 | – | – | 40 | – | – | – | – | – | – | – | – | –
4 | CCC(=O)CCCCC[C@@H]1NC(=O)[C@H]2CCCCN2C(=O)[C@H]([C@@H](C)CC)NC(=O)[C@H](Cc2cn(OC)c3ccccc23)NC1=O [Apicidin] | 0.036 ± 0.009 | 280 | 0.036 ± 0.005 | – | – | – | 8 | slightly shorter delay | no difference in recrudence time | 0.98 and 1.16 and 0.96 | increase and 1.81 and 2.83 and 2.40 | increase and 1.70 and 1.40 and 1.39 | increase and 2.21 and 2.92 and 2.08 | 10 | –
5 | CN1C(=O)[C@@]23C[C@]4([C@]56C[C@@]78SS[C@@](CO)(C(=O)N7[C@H]5Nc5ccccc56)N(C)C8=O)c5ccccc5N[C@@H]4N2C(=O)[C@]1(CO)SS3 [Chaetocin] | 0.64 ± 0.16 | 0.2 | 0.73 ± 0.09 | – | – | – | – | – | – | – | – | – | – | – | 0.13
